The values below come from US12053473B2, “Benzylamino substituted quinazolines and derivatives as SOS1 inhibitors” (priority 2016, dated 2024).

The first test concerns the target SOS1 and KRAS G12D (protein-protein interaction) (Homo sapiens, UniProt Q07889). The test is described as follows: KRAS::SOS1 AlphaScreen binding assay. Particulars: assay buffer with 100 μM EDTA (values marked with an asterisk); read-out: IC50 (SOS1). On the procedure: KRAS::SOS1 AlphaScreen Binding Assay
Low IC50 values are indicative of high potency of the SOS1 inhibitor compound in this assay setting:
10 nM (final assay concentration) KRAS G12D, 10 μM (final assay concentration) GDP and 5 nM (final assay concentration) GST-SOS1 are mixed in assay buffer prior to use and kept at room temperature.
AlphaLSA Glutathione Acceptor Beads and AlphaScreen Streptavidin Donor Beads are mixed in assay buffer at a concentration of 10 μg/mL (final assay concentration) each prior to use and kept at room temperature.
Compounds are diluted to a final start concentration of 100 μM and are tested in duplicate. […] For compound a start concentration of 100 μM, 150 nL of compound solution is transferred per well in 11 concentrations in duplicate with serial 1:5 dilutions.
The assay is run using a fully automated robotic system in a darkened room below 100 Lux. 10 μL of KRAS::SOS1 GDP mix is added into columns 1-24 to the 150 nL of compound solution (final dilution in the assay 1:100, final DMSO concentration 1%).
After a 30 minute incubation time 5 μL of bead mix is added into columns 1-23. Plates are kept at room temperature in a darkened incubator. After a further 60 minute incubation, the signal is measured using a PerkinElmer Envision HTS Multilabel Reader using the AlphaScreen specifications from PerkinElmer. Each plate contains the following controls: • diluted DMSO+KRAS::SOS1 GDP mix+bead mix • diluted DMSO+KRAS::SOS1 GDP mix Result Calculation:
IC50 values are calculated and analyzed using a 4 parametric logistic model.
(In general: Bead proximity is the source of the signal in Alpha formats.)
As to `Cc1cccc([C@@H](C)Nc2nc(C)nc3ccc([C@H]4CC[C@H](O)CC4)cc23)c1` [I-64], the half-inhibitory concentration (IC50) (in general, the concentration needed to halve the response being measured) is 34 nM.

In the case of `Cc1nc(N[C@H](C)c2cccc(Cl)c2F)c2cc(C3=CCNCC3)ccc2n1` [I-170], the IC50 is 24 nM.

Staying with this test, now noted: assay buffer without EDTA (values not marked with an asterisk); read-out: IC50 (SOS1).
Consider `Cc1cccc([C@@H](C)Nc2nc(C)nc3ccc(C4CCOCC4)cc23)c1` [I-154], for which the IC50 was 43 nM.

`CC(=O)N1CCC(O)(c2ccc3nc(C)nc(N[C@H](C)c4cccc(C(F)(F)F)c4)c3c2)CC1` [I-48]: the IC50 was found to be 15 nM.

`COc1cc2nc(C)nc(N[C@H](C)c3cccc(C)c3)c2cc1O[C@H]1CCN(C(C)=O)C1` [I-4]: the IC50 is 30 nM.

`Cc1nc(N[C@H](C)c2cccc(C(F)(F)F)c2)c2cc(C3CCOCC3)ccc2n1` [I-153]: the IC50 is 33 nM.

Regarding `Cc1nc(N[C@H](C)c2cc(N)cc(C(F)(F)F)c2)c2cc([C@H]3CC[C@H](O)CC3)ccc2n1` [I-65], the IC50 came out at 8 nM.

Take `COc1cc2nc(C)nc(N[C@H](C)c3cccc(C(F)(F)F)c3)c2cc1C1(O)CCN(C(C)=O)CC1` [I-44]: the half-inhibitory concentration (IC50) is 4 nM.

Regarding `Cc1cccc([C@@H](C)Nc2nc(C)nc3c(C)cc(C4CCN(C(C)C)CC4)cc23)c1` [I-289], the IC50 was 18 nM.

In the case of `CC(=O)N1CCC(O)(c2ccc3nc(C)nc(N[C@H](C)c4cccc(C)c4)c3c2)CC1` [I-52], the IC50 is 14 nM.

Take `Cc1nc(N[C@H](C)c2cc(N)cc(C(F)(F)F)c2)c2cc([C@H]3CC[C@@H](O)CC3)ccc2n1` [I-66]: the IC50 amounted to 43 nM.

For `CC(=O)N1CCC2(CC1)CC(O)(c1ccc3nc(C)nc(N[C@H](C)c4cccc(C(F)(F)F)c4)c3c1)C2` [I-51], the IC50 was found to be 23 nM.

With `COCC(=O)N1CCC(c2cc3c(N[C@H](C)c4cccc(C(F)(F)CO)c4)nc(C)nc3cc2OC)CC1` [I-165], the half-inhibitory concentration (IC50) is 2 nM.

Take `CC(=O)N1CC[C@H](Oc2cc3c(N[C@H](C)c4cc(N)cc(C(F)(F)F)c4)nc(C)nc3cc2C)C1` [I-9]: the IC50 is 3 nM.

With `COCC(=O)N1CCC(O)(c2cc3c(N[C@H](C)c4cccc(C(F)(F)F)c4)nc(C)nc3cc2OC)CC1` [I-47], the half-maximal inhibitory concentration (IC50) came out at 5 nM.

Consider `CC(=O)N1CC2(C1)CC(O)(c1cc(C)c3nc(C)nc(N[C@H](C)c4cccc(C(F)(F)F)c4)c3c1)C2` [I-42], for which the IC50 amounted to 26 nM.

Take `CCC(=O)N1CC[C@H](Oc2cc3c(N[C@H](C)c4cc(N)cc(C(F)(F)F)c4)nc(C)nc3cc2C)C1` [I-53]: the IC50 came out at 3 nM.

Staying with this test, now noted: read-out: IC50 (SOS1).
With `Cc1nc(N[C@H](C)c2cc(N)cc(C(F)(F)F)c2)c2cc(C3CCS(=O)(=O)CC3)c(C)cc2n1` [I-321], the half-maximal inhibitory concentration (IC50) amounted to 3 nM.

Turning to `Cc1cccc([C@@H](C)Nc2nc(C)nc3ccc([C@H]4CC[C@H](C(=O)N(C)C)CC4)cc23)c1` [I-264], the IC50 came out at 13 nM.

For `Cc1cccc([C@@H](C)Nc2nc(C)nc3ccc([C@H]4CC[C@H](C(=O)N5CCC(O)C5)CC4)cc23)c1` (some centres unmarked) [I-266], the IC50 is 25 nM.

Turning to `COc1cc2nc(C)nc(N[C@H](C)c3cccc(C(F)(F)F)c3C)c2cc1[C@H]1CC[C@H](C(=O)N(C)CCO)CC1` [I-294], the IC50 came out at 5 nM.

As to `COc1cc2nc(C)nc(N[C@H](C)c3cc(N)cc(C(F)(F)F)c3)c2cc1[C@H]1CC[C@H](C(=O)N2CCN(C)CC2)CC1` [I-353], the IC50 was 2 nM.

For `COc1cc2nc(C)nc(N[C@H](C)c3cc(N)cc(C(F)(F)F)c3C)c2cc1[C@H]1CC[C@H](C(=O)N(C)C)CC1` [I-248], the IC50 turned out to be 2 nM.

For `Cc1nc(N[C@H](C)c2cc(N)cc(C(F)(F)F)c2)c2cc([C@H]3CC[C@H](C(=O)N(C)C[C@@H](C)O)CC3)ccc2n1` [I-256], the IC50 was determined as 3 nM.

Turning to `COc1cc2nc(C)nc(N[C@H](C)c3cc(N)cc(C(F)(F)F)c3F)c2cc1[C@H]1CC[C@H](C(=O)N(C)C)CC1` [I-244], the IC50 is 2 nM.

As to `COCC(=O)N1CCC(c2cc3c(N[C@H](C)c4cccc(C)c4)nc(C)nc3cc2OC)CC1` [I-282], the IC50 came to 20 nM.

As for `COc1cc2nc(C)nc(N[C@H](C)c3cc(N)cc(C(F)(F)F)c3F)c2cc1C1CCS(=O)(=O)CC1` [I-311], the 50% inhibitory concentration (IC50) amounted to 6 nM.

On to `CC(=O)N1CC=C(c2ccc3nc(C)nc(N[C@H](C)c4cccc(C(F)(F)F)c4)c3c2)CC1` [I-221], for which the half-maximal inhibitory concentration (IC50) was found to be 11 nM.

Turning to `COc1cc2nc(C)nc(N[C@H](C)c3cc(N)cc(C(F)(F)F)c3)c2cc1[C@H]1CC[C@@H](C(=O)N2CCOCC2)CC1` [I-360], the IC50 came to 25 nM.

With `COc1cc2nc(C)nc(N[C@H](C)c3cc(N)cc(C(F)(F)F)c3C)c2cc1[C@H]1CC[C@@H](C(=O)N(C)C)CC1` [I-249], the IC50 is 38 nM.

Regarding `COc1cc2nc(C)nc(N[C@H](C)c3cccc(C(F)(F)F)c3)c2cc1C1CCC(C(=O)N(C)CC(O)CO)CC1` (some centres unmarked) [I-227], the half-maximal inhibitory concentration (IC50) came to 27 nM.

On to `COCC(=O)N1CCC(c2ccc3nc(C)nc(N[C@H](C)c4cc(N)cc(C(F)(F)F)c4)c3c2)CC1` [I-314], for which the IC50 was found to be 2 nM.

Turning to `Cc1nc(N[C@H](C)c2cc(N)cc(C(F)(F)F)c2)c2cc([C@H]3CC[C@H](C(=O)N4CCN(C)CC4)CC3)cc(C)c2n1` [I-361], the IC50 stood at 5 nM.

Regarding `Cc1nc(N[C@H](C)c2cccc(C(F)(F)F)c2)c2cc(C3=CCC(C(=O)N4CCN(C)CC4)CC3)ccc2n1` (some centres unmarked) [I-223], the IC50 was 27 nM.

With `COc1cc2nc(C)nc(N[C@H](C)c3cc(N)cc(C(F)(F)F)c3)c2cc1[C@H]1CC[C@H](C(=O)N(C)C)CC1` [I-355], the IC50 stood at 2 nM.

Turning to `Cc1nc(N[C@H](C)c2cccc(C(F)(F)F)c2)c2cc(C3=CCC(C(=O)N(C)C)CC3)ccc2n1` (some centres unmarked) [I-222], the concentration for half-maximal inhibition (IC50) was found to be 19 nM.

As to `Cc1cccc([C@@H](C)Nc2nc(C)nc3cc(C)c(-c4ccc(C(=O)N5CCOCC5)cc4)cc23)c1` [I-83], the IC50 was found to be 44 nM.

Turning to `CCN(C)C(=O)[C@H]1CC[C@@H](c2ccc3nc(C)nc(N[C@H](C)c4cc(N)cc(C(F)(F)F)c4)c3c2)CC1` [I-239], the IC50 was found to be 15 nM.

For the compound `COC1CN(C(=O)[C@H]2CC[C@H](c3ccc4nc(C)nc(N[C@H](C)c5cccc(C(F)(F)F)c5)c4c3)CC2)C1` [I-230], the IC50 was determined as 32 nM.

Consider `Cc1nc(N[C@H](C)c2cc(N)cc(C(F)(F)F)c2)c2cc(C3CCN(C(=O)CN(C)C)CC3)ccc2n1` [I-313], for which the IC50 turned out to be 3 nM.

For `Cc1nc(N[C@H](C)c2cccc(C(F)(F)F)c2)c2cc(-c3ccc(=O)n(C)c3)c(C)cc2n1` [I-109], the half-inhibitory concentration (IC50) stood at 25 nM.

As to `Cc1nc(N[C@H](C)c2cccc(C(F)(F)F)c2)c2cc([C@H]3CC[C@H](C(=O)N(C)C)CC3)ccc2n1` [I-229], the IC50 is 7 nM.

Turning to `COc1cc2nc(C)nc(N[C@H](C)c3cc(N)cc(C(F)(F)F)c3)c2cc1-c1ccc(=O)n(C(C)C)c1` [I-351], the IC50 came to 13 nM.

Take `Cc1nc(N[C@H](C)c2cc(N)cc(C(F)(F)F)c2)c2cc([C@H]3CC[C@@H](C(=O)N(C)CCO)CC3)ccc2n1` [I-253]: the IC50 is 7 nM.

For the compound `CONC(=O)CC(C)c1ccc2nc(C)nc(N[C@H](C)c3cccc(C(F)(F)F)c3)c2c1` (some centres unmarked) [I-376], the IC50 is 34 nM.

In the case of `CC(=O)N1CCC(c2cc3c(N[C@H](C)c4cccc(C)c4)nc(C)nc3cc2C)CC1` [I-271], the IC50 worked out at 24 nM.

Regarding `CNC(=O)CC(C)c1ccc2nc(C)nc(N[C@H](C)c3cccc(C(F)(F)F)c3)c2c1` (some centres unmarked) [I-375], the IC50 was 36 nM.

For `COCC(=O)N1CC=C(c2ccc3nc(C)nc(N[C@H](C)c4cc(N)cc(C(F)(F)F)c4)c3c2)CC1` [I-220], the IC50 was found to be 3 nM.

On to `COc1cc2nc(C)nc(N[C@H](C)c3cccc(C(F)(F)F)c3)c2cc1-c1ccc(C(=O)N(C)CCO)cc1` [I-214], for which the IC50 came out at 40 nM.

For the compound `CC(=O)N1CCC(c2ccc3nc(C)nc(N[C@H](C)c4cccc(C(F)(F)F)c4)c3c2)CC1` [I-280], the IC50 amounted to 17 nM.

In the case of `Cc1nc(N[C@H](C)c2cc(N)cc(C(F)(F)F)c2)c2cc(-c3ccc(=O)[nH]c3)ccc2n1` [I-102], the IC50 came to 9 nM.

The same test, now with this note: values marked with * in the table; read-out: IC50 (SOS1).
On to `COc1cc2nc(C)nc(N[C@H](C)c3cccc(C)c3)c2cc1-c1ccc(=O)n(CC(=O)N(C)C)c1` [I-335], for which the IC50 stood at 27 nM.

For the compound `Cc1cccc([C@@H](C)Nc2nc(C)nc3ccc(-c4ccc(=O)[nH]c4)cc23)c1` [I-99], the IC50 stood at 29 nM.

Regarding `Cc1nc(N[C@H](C)c2cc(N)cc(C(F)(F)F)c2)c2cc(-c3ccc(=O)n(C)c3)c(C)cc2n1` [I-107], the IC50 was 4 nM.

On to `Cc1nc(N[C@H](C)c2cccc(C(F)(F)F)c2)c2cc(-c3ccc(=O)[nH]c3)ccc2n1` [I-100], for which the IC50 was found to be 48 nM.

Turning to `Cc1nc(N[C@H](C)c2cccc(C(F)(F)F)c2)c2cc(-c3cc4n(n3)CCC(=O)N4)c(C)cc2n1` [I-89], the concentration for half-maximal inhibition (IC50) is 34 nM.

On to `Cc1nc(N[C@H](C)c2cccc(C(F)(F)F)c2)c2cc(-c3ccc(=O)n(CC(=O)O)c3)ccc2n1` [I-341], for which the IC50 was 35 nM.

In the case of `Cc1nc(N[C@H](C)c2cccc(C(F)(F)F)c2)c2cc(-c3ccn(CC(=O)N(C)C)c(=O)c3)ccc2n1` [I-337], the IC50 stood at 37 nM.

With `COc1cc2nc(C)nc(N[C@H](C)c3cccc(C)c3)c2cc1-c1ccc(=O)[nH]c1` [I-101], the IC50 was 28 nM.
